Test results as given in patent US20220226369A1, “ETHANOL HARDENER AND USE THEREOF” (priority 2019, published 2022).

Legend:
[1] = Viscosity test by capillary viscometer; type: physicochemical; conditions: 20° C.
Description: The viscosity of Examples 1, 5 and 7 and ethanol was measured by a capillary viscometer at an ambient temperature of 20° C. The capillary diameter was 0.5-0.6 mm and the viscometer constant was 0.005085 mm^2/s^2. The time difference of liquid passing through the capillary was recorded.
Viscosity=time difference×viscometer constant

rabbit ear vein = assay: Embolic effect in rabbit ear vein; type: in vivo, rabbits; conditions: 0.1 mL injected, after one-month recovery, India ink
Description: Sixty healthy male rabbits with body weight of 2.5±0.2 kg were selected and divided into 6 groups of 10. The rabbits were anesthetized with a 3% sodium pentobarbital solution by intraperitoneal injection at 0.8 mL/kg. An anticoagulated and disinfected PE-8 catheter (0.20 mm×0.36 mm) was inserted into the distal end of the ear vein, until the end of the catheter reached the midpoint of the ear vein. The in-vitro end of the catheter was connected with a 1-mL syringe through a cannula.
0.1 mL of each of the sclerosing agents of various embodiments with different components was injected at a constant speed through the PE-8 catheter. After 30 seconds, the catheter was slowly and gently withdrawn, and a cotton pad was used for hemostasis. Both left and right ears of the animals were treated with the same procedures. The animals after sclerosing treatment were accommodate in individual cages. After a one-month recovery period, after visual inspection, a normal saline containing India ink was slowly injected at the distal end of the ear vein, so as to observe and record whether the blood vessels were completely embolized. The embolization ratio in each group was recorded (Table 2).

For `CCO` [Ethanol, ethanol], the Time difference ([1]; capillary diameter 0.5-0.6 mm) was 245 s, the Viscosity ([1]; viscometer constant 0.005085 mm^2/s^2) was 1.25 mm^2/s and the “Ratio of completely embolized vessels” value (rabbit ear vein) was 60% (12/20).
